Assay results published in ChEMBL document CHEMBL1201862, “PubChem BioAssay data set” (2004).
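Briefly, cells in 96-well plates were exposed to five compound concentrations for 48 h, and endpoints were estimated by linear interpolation. GI50 = concentration required for 50% inhibition of growth.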 Activity calls are given as the source filed them. Rule as the data show it: active = GI50 up to about 1.1 µM and inactive = higher.

Tests used:
Experiment in all cases: growth of human tumour cells (NCI), 48 h
K562 = system: K562
OVCAR-3 = system: OVCAR-3
BT-549 = system: BT-549
EKVX = system: EKVX
MDA-MB-231 = system: MDA-MB-231
NCI-H226 = system: NCI-H226
NCI-H460 = system: NCI-H460
A498 = system: A498
OVCAR-5 = system: OVCAR-5
HCT-15 = system: HCT-15
RPMI-8226 = system: RPMI-8226
PC-3 = system: PC-3
UACC-62 = system: UACC-62
SW-620 = system: SW-620
SK-MEL-5 = system: SK-MEL-5
HOP-92 = system: HOP-92
DU-145 = system: DU-145
A549 = system: A549
LOX IMVI = system: LOX IMVI
IGROV-1 = system: IGROV-1
SF-539 = system: SF-539
M14 = system: M14
Malme-3M = system: Malme-3M
SK-MEL-28 = system: SK-MEL-28
HT-29 = system: HT-29
U-251 = system: U-251
HL-60 = system: HL-60
SK-MEL-2 = system: SK-MEL-2
RXF 393 = system: RXF 393
MCF7 = system: MCF7
SNB-75 = system: SNB-75
786-0 = system: 786-0
ACHN = system: ACHN
MDA-MB-435 = system: MDA-MB-435
OVCAR-8 = system: OVCAR-8
MOLT-4 = system: MOLT-4
CAKI-1 = system: CAKI-1
SR = system: SR
KM12 = system: KM12
HOP-62 = system: HOP-62
OVCAR-4 = system: OVCAR-4
TK-10 = system: TK-10
NCI-H23 = system: NCI-H23
SF-268 = system: SF-268
UO-31 = system: UO-31
SN12C = system: SN12C
HCT-116 = system: HCT-116
NCI/ADR-RES = system: NCI/ADR-RES
SF-295 = system: SF-295
Hs-578T = system: Hs-578T
NCI-H522 = system: NCI-H522
UACC-257 = system: UACC-257
CCRF-CEM = system: CCRF-CEM
SNB-19 = system: SNB-19
HCC 2998 = system: HCC 2998
MDA-N = system: MDA-N
T47D = system: T47D
SK-OV-3 = system: SK-OV-3
COLO 205 = system: COLO 205

With Nc1ncnc2c1ncn2Cc1cccc(CCl)c1 the GI50 (K562) was 21.9 µM (inactive), the GI50 (OVCAR-3) was 14.1 µM (inactive) and the GI50 (BT-549) was 12.8 µM (inactive). For the same compound, the GI50 (EKVX) was 19.3 µM (inactive), the GI50 (MDA-MB-231) was 16.6 µM (inactive) and the GI50 (NCI-H226) was 16 µM (inactive). For the same compound, the GI50 (NCI-H460) was 14.2 µM (inactive), the GI50 (A498) was 15.2 µM (inactive) and the GI50 (OVCAR-5) was 14.5 µM (inactive). The GI50 (HCT-15) was 17.9 µM, the GI50 (RPMI-8226) was 5.38 µM (inactive) and the GI50 (PC-3) was 14.7 µM (inactive). For the same compound, the GI50 (UACC-62) was 12.8 µM (inactive), the GI50 (SW-620) was 12.4 µM (inactive) and the GI50 (SK-MEL-5) was 16.1 µM (inactive). The GI50 (HOP-92) was 19.7 µM (inactive), the GI50 (DU-145) was 13.8 µM (inactive) and the GI50 (A549) was 21.8 µM (inactive). For the same compound, the GI50 (LOX IMVI) was 20.1 µM (inactive), the GI50 (IGROV-1) was 16.3 µM (inactive) and the GI50 (SF-539) was 14.8 µM (inactive). The GI50 (M14) was 14.1 µM (inactive), the GI50 (Malme-3M) was 17.9 µM (inactive) and the GI50 (SK-MEL-28) was 19.8 µM (inactive). For the same compound, the GI50 (HT-29) was 22.8 µM (inactive), the GI50 (U-251) was 13.8 µM (inactive) and the GI50 (HL-60) was 15 µM (inactive). For the same compound, the GI50 (SK-MEL-2) was 15 µM (inactive), the GI50 (RXF 393) was 3.88 µM (inactive) and the GI50 (MCF7) was 10 µM (inactive). For the same compound, the GI50 (SNB-75) was 30.1 µM (inactive), the GI50 (786-0) was 14.4 µM (inactive) and the GI50 (ACHN) was 14.8 µM (inactive). For the same compound, the GI50 (MDA-MB-435) was 19.1 µM (inactive), the GI50 (OVCAR-8) was 16.1 µM (inactive) and the GI50 (MOLT-4) was 15.2 µM (inactive). The GI50 (CAKI-1) was 18.8 µM (inactive), the GI50 (SR) was 6.43 µM (inactive) and the GI50 (KM12) was 15.1 µM (inactive). For the same compound, the GI50 (HOP-62) was 12.7 µM (inactive), the GI50 (OVCAR-4) was 20.3 µM (inactive) and the GI50 (TK-10) was 17 µM (inactive). The GI50 (NCI-H23) was 12.6 µM (inactive), the GI50 (SF-268) was 14.7 µM (inactive) and the GI50 (UO-31) was 16.5 µM (inactive). For the same compound, the GI50 (SN12C) was 15.1 µM (inactive), the GI50 (HCT-116) was 10.4 µM (inactive) and the GI50 (NCI/ADR-RES) was 18.5 µM (inactive). For the same compound, the GI50 (SF-295) was 15.9 µM (inactive), the GI50 (Hs-578T) was 22.8 µM (inactive) and the GI50 (NCI-H522) was 15.1 µM (inactive). For the same compound, the GI50 (UACC-257) was 14.8 µM (inactive).

For C/C(Sc1ccccc1)=C1/CCCN(Cc2ccccc2)C1, the GI50 (K562) was 18 µM (inactive), the GI50 (OVCAR-3) was 16.6 µM (inactive) and the GI50 (EKVX) was 32.3 µM (inactive). For the same compound, the GI50 (MDA-MB-231) was 24.1 µM (inactive), the GI50 (NCI-H226) was 12.9 µM (inactive) and the GI50 (NCI-H460) was 21.8 µM (inactive). The GI50 (A498) was 37.8 µM (inactive), the GI50 (OVCAR-5) was 23.7 µM (inactive) and the GI50 (HCT-15) was 14.2 µM. For the same compound, the GI50 (CCRF-CEM) was 20.2 µM (inactive), the GI50 (RPMI-8226) was 14.5 µM (inactive) and the GI50 (PC-3) was 21.9 µM (inactive). For the same compound, the GI50 (UACC-62) was 19.9 µM (inactive), the GI50 (SNB-19) was 36.9 µM (inactive) and the GI50 (SW-620) was 28.9 µM (inactive). For the same compound, the GI50 (SK-MEL-5) was 14.3 µM (inactive), the GI50 (HCC 2998) was 17.2 µM (inactive) and the GI50 (HOP-92) was 17.5 µM (inactive). The GI50 (DU-145) was 47.5 µM (inactive), the GI50 (A549) was 32.7 µM (inactive) and the GI50 (LOX IMVI) was 14.1 µM (inactive). The GI50 (IGROV-1) was 36.3 µM (inactive), the GI50 (SF-539) was 28 µM (inactive) and the GI50 (M14) was 11.9 µM (inactive). For the same compound, the GI50 (Malme-3M) was 14.3 µM (inactive), the GI50 (SK-MEL-28) was 23.8 µM (inactive) and the GI50 (HT-29) was 35.6 µM (inactive). The GI50 (MDA-N) was 22.6 µM (inactive), the GI50 (U-251) was 20.5 µM (inactive) and the GI50 (HL-60) was 13.7 µM (inactive). For the same compound, the GI50 (SK-MEL-2) was 17.2 µM (inactive), the GI50 (RXF 393) was 16.6 µM (inactive) and the GI50 (MCF7) was 20.2 µM (inactive). For the same compound, the GI50 (SNB-75) was 23.6 µM (inactive), the GI50 (786-0) was 19.5 µM (inactive) and the GI50 (ACHN) was 31.4 µM (inactive). The GI50 (MDA-MB-435) was 25.1 µM (inactive), the GI50 (OVCAR-8) was 30 µM (inactive) and the GI50 (MOLT-4) was 16.7 µM (inactive). For the same compound, the GI50 (CAKI-1) was 24.9 µM (inactive), the GI50 (SR) was 16.1 µM (inactive) and the GI50 (KM12) was 20.1 µM (inactive). For the same compound, the GI50 (HOP-62) was 20.6 µM (inactive), the GI50 (OVCAR-4) was 35.2 µM (inactive) and the GI50 (TK-10) was 18.6 µM (inactive). For the same compound, the GI50 (NCI-H23) was 23.9 µM (inactive), the GI50 (T47D) was 13.3 µM (inactive) and the GI50 (SF-268) was 36.1 µM (inactive). For the same compound, the GI50 (SK-OV-3) was 32.7 µM (inactive), the GI50 (UO-31) was 15.3 µM (inactive) and the GI50 (NCI/ADR-RES) was 24.9 µM (inactive). For the same compound, the GI50 (COLO 205) was 17.5 µM (inactive), the GI50 (SF-295) was 17.4 µM (inactive) and the GI50 (Hs-578T) was 16.3 µM (inactive). For the same compound, the GI50 (NCI-H522) was 15.8 µM (inactive) and the GI50 (UACC-257) was 18.7 µM (inactive).

With COC(=O)C12C(=O)CC3CCC1C32C(=O)OC (configuration not stated) the GI50 (K562) was > 100 µM (inactive), the GI50 (OVCAR-3) was > 100 µM (inactive) and the GI50 (BT-549) was > 100 µM (inactive). The GI50 (EKVX) was > 100 µM (inactive), the GI50 (MDA-MB-231) was > 100 µM (inactive) and the GI50 (NCI-H226) was > 100 µM (inactive). For the same compound, the GI50 (NCI-H460) was > 100 µM (inactive), the GI50 (OVCAR-5) was > 100 µM (inactive) and the GI50 (HCT-15) was > 100 µM. The GI50 (CCRF-CEM) was > 100 µM (inactive), the GI50 (RPMI-8226) was > 100 µM (inactive) and the GI50 (PC-3) was > 100 µM (inactive). The GI50 (UACC-62) was > 100 µM (inactive), the GI50 (SNB-19) was > 100 µM (inactive) and the GI50 (SW-620) was > 100 µM (inactive). For the same compound, the GI50 (SK-MEL-5) was > 100 µM (inactive), the GI50 (HCC 2998) was > 100 µM (inactive) and the GI50 (DU-145) was > 100 µM (inactive). The GI50 (A549) was > 100 µM (inactive), the GI50 (LOX IMVI) was > 100 µM (inactive) and the GI50 (IGROV-1) was > 100 µM (inactive). The GI50 (SF-539) was > 100 µM (inactive), the GI50 (M14) was > 100 µM (inactive) and the GI50 (Malme-3M) was > 100 µM (inactive). The GI50 (SK-MEL-28) was > 100 µM (inactive), the GI50 (HT-29) was > 100 µM (inactive) and the GI50 (MDA-N) was > 100 µM (inactive). For the same compound, the GI50 (U-251) was > 100 µM (inactive), the GI50 (SK-MEL-2) was > 100 µM (inactive) and the GI50 (RXF 393) was > 100 µM (inactive). For the same compound, the GI50 (MCF7) was > 100 µM (inactive), the GI50 (SNB-75) was > 100 µM (inactive) and the GI50 (786-0) was > 100 µM (inactive). For the same compound, the GI50 (ACHN) was > 100 µM (inactive), the GI50 (MDA-MB-435) was > 100 µM (inactive) and the GI50 (OVCAR-8) was > 100 µM (inactive). The GI50 (MOLT-4) was > 100 µM (inactive), the GI50 (CAKI-1) was > 100 µM (inactive) and the GI50 (SR) was > 100 µM (inactive). The GI50 (KM12) was > 100 µM (inactive), the GI50 (HOP-62) was > 100 µM (inactive) and the GI50 (OVCAR-4) was > 100 µM (inactive). For the same compound, the GI50 (TK-10) was > 100 µM (inactive), the GI50 (NCI-H23) was > 100 µM (inactive) and the GI50 (SF-268) was > 100 µM (inactive). The GI50 (SK-OV-3) was > 100 µM (inactive), the GI50 (UO-31) was > 100 µM (inactive) and the GI50 (SN12C) was > 100 µM (inactive). For the same compound, the GI50 (HCT-116) was > 100 µM (inactive), the GI50 (NCI/ADR-RES) was > 100 µM (inactive) and the GI50 (COLO 205) was > 100 µM (inactive). For the same compound, the GI50 (SF-295) was > 100 µM (inactive), the GI50 (NCI-H522) was > 100 µM (inactive) and the GI50 (UACC-257) was > 100 µM (inactive).
